Bridge positions count the residues as written; N and C are the ends. Square brackets hold non-standard residues; d marks the D form. Peptide text beside a SMILES is read from it. R5 = C=CCCC[C@@](C)(N)C(=O)O
Molecular target: T1, MDM2 (1-125) (Homo sapiens, UniProt Q00987)
T1 construct: cleaved MDM2 (1-125) was purified to ~90% purity; GST (N, cleaved yes); made in house; host or cells: Escherichia coli BL21(DE3)
Experiment: Competitive fluorescence polarization titration against FAM-labeled 12/1 peptide
Assay type: binding
Settings: read-out: Dissociation constant (Kd)
Description: [P] is the protein concentration (MDM2), [L] is the labeled peptide concentration, r is the
Apparent Kd values were determined for a variety of molecules via competitive fluorescence […]
triplicate. Curve-fitting was carried out using Prism 4.0 (GraphPad).

T1 sequence (Q00987 1-125): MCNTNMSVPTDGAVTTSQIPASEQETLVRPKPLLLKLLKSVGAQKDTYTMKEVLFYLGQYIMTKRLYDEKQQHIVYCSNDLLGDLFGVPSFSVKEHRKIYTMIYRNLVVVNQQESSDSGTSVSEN

Row | Compound | Kd
1 | CC(=O)N[C@H](C(=O)N[C@@H](CO)C(=O)N[C@@H](Cc1ccccc1)C(=O)N[C@]1(C)CCCC=CCCC[C@](C)(C(=O)N[C@@H](CC(C)C)C(=O)N[C@@H](CC(C)C)C(=O)N2CCC[C@H]2C(=O)N[C@@H](CCC(=O)O)C(=O)N[C@@H](CC(N)=O)C(N)=O)NC(=O)[C@H](Cc2c[nH]c3ccccc23)NC(=O)[C@H](Cc2ccc(O)cc2)NC(=O)[C@H](CCC(=O)O)NC1=O)[C@@H](C)O [YS-3] (Ac-TSF[R5]EYW[R5]LLPEN-NH2; staple 4-8) | 36.1 ± 2.9 nM
2 | CC(=O)N[C@H](C(=O)N[C@@H](CO)C(=O)N[C@@H](Cc1ccccc1)C(=O)N[C@]1(C)CCCC=CCCC[C@](C)(C(=O)N[C@@H](CC(C)C)C(=O)N[C@@H](CC(C)C)C(=O)N2CCC[C@H]2C(=O)N[C@@H](CCC(=O)O)C(=O)N[C@@H](CC(N)=O)C(=O)N[C@@H](Cc2ccccc2)C(N)=O)NC(=O)[C@H](Cc2c[nH]c3ccccc23)NC(=O)[C@H](Cc2ccc(O)cc2)NC(=O)[C@H](CCC(=O)O)NC1=O)[C@@H](C)O [YS-1] (Ac-TSF[R5]EYW[R5]LLPENF-NH2; staple 4-8) | 9.9 ± 1.5 nM
3 | CC(=O)N[C@H](C(=O)N[C@@H](CO)C(=O)N[C@@H](Cc1ccccc1)C(=O)N[C@]1(C)CCCC=CCCC[C@](C)(C(=O)N[C@@H](CC(C)C)C(=O)N[C@@H](CC(C)C)C(=O)N2CCC[C@H]2C(=O)N[C@@H](CCC(=O)O)C(=O)N[C@@H](CC(N)=O)C(=O)N[C@@H](Cc2ccc(O)cc2)C(N)=O)NC(=O)[C@H](Cc2c[nH]c3ccccc23)NC(=O)[C@H](Cc2ccc(O)cc2)NC(=O)[C@H](CCC(=O)O)NC1=O)[C@@H](C)O [YS-2] (Ac-TSF[R5]EYW[R5]LLPENY-NH2; staple 4-8) | 7.4 ± 1.5 nM

Results, then the compound that gave them:

Row | Kd | Compound
4 | 8.8 ± 0.6 nM | CC(=O)N[C@H](C(=O)N[C@@H](CO)C(=O)N[C@@H](Cc1ccccc1)C(=O)N[C@]1(C)CCCC=CCCC[C@](C)(C(=O)N[C@@H](CC(C)C)C(=O)N[C@@H](CC(C)C)C(=O)N[C@@H](CO)C(=O)N[C@@H](CCC(=O)O)C(=O)N[C@@H](CC(N)=O)C(=O)N[C@@H](Cc2ccc(O)cc2)C(N)=O)NC(=O)[C@H](Cc2c[nH]c3ccccc23)NC(=O)[C@H](Cc2ccc(O)cc2)NC(=O)[C@H](CCC(=O)O)NC1=O)[C@@H](C)O [YS-6] (Ac-TSF[R5]EYW[R5]LLSENY-NH2; staple 4-8)
5 | 11.6 ± 0.9 nM | CC(=O)N[C@H](C(=O)N[C@@H](CO)C(=O)N[C@@H](Cc1ccccc1)C(=O)N[C@]1(C)CCCC=CCCC[C@](C)(C(=O)N[C@@H](CC(C)C)C(=O)N[C@@H](CC(C)C)C(=O)N[C@@H](CO)C(=O)N[C@@H](CCC(=O)O)C(=O)N[C@@H](CC(N)=O)C(=O)N[C@@H](Cc2ccccc2)C(N)=O)NC(=O)[C@H](Cc2c[nH]c3ccccc23)NC(=O)[C@H](Cc2ccc(O)cc2)NC(=O)[C@H](CCC(=O)O)NC1=O)[C@@H](C)O [YS-5] (Ac-TSF[R5]EYW[R5]LLSENF-NH2; staple 4-8)
6 | 27.7 ± 1.3 nM | CC(=O)N[C@H](C(=O)N[C@@H](CO)C(=O)N[C@@H](Cc1ccccc1)C(=O)N[C@]1(C)CCCC=CCCC[C@](C)(C(=O)N[C@@H](CC(C)C)C(=O)N[C@@H](CC(C)C)C(=O)N2CCC[C@H]2C(=O)N[C@@H](CCC(=O)O)C(=O)N[C@@H](CC(N)=O)C(=O)N[C@@H](C)C(N)=O)NC(=O)[C@H](Cc2c[nH]c3ccccc23)NC(=O)[C@H](Cc2ccc(O)cc2)NC(=O)[C@H](CCC(=O)O)NC1=O)[C@@H](C)O [YS-4] (Ac-TSF[R5]EYW[R5]LLPENA-NH2; staple 4-8)

Reference: paper PMC5515508, “Benzene Probes in Molecular Dynamics Simulations Reveal Novel Binding Sites for Ligand Design” (The Journal of Physical Chemistry Letters, 2016)
